# Assay results: patent publication US11478533B2, “Semaglutide for use in medicine” (Novo Nordisk A/S, priority 2020, dated 2022)
# Legend:
# [1] = test system: subjects with NAFLD and increased liver stiffness; assay: Clinical Trial B: liver steatosis by MRI-PDFF; type: in vivo, human; settings: 0.4 mg OD s.c.
# Procedure: A randomised, double-blind, placebo-controlled, parallel group, multi-centre phase 1 trial was carried out to investigate the effect of 0.4 mg semaglutide once-daily (OD) in 67 subjects with NAFLD and increased liver stiffness. Subjects received once daily either (i) semaglutide of 0.05 mg for 4 weeks, 0.1 mg for 4 weeks, 0.2 mg for 4 weeks, 0.3 mg for 4 weeks, and then 0.4 mg for the remaining trial period, or (ii) placebo in injection volumes corresponding to (i). Administration was performed via subcutaneous injection using (a) an aqueous solution comprising 1.0 mg/ml semaglutide, 1.42 mg/ml disodium hydrogen phosphate dihydrate, 14.0 mg/ml propylene glycol, 5.50 mg/ml phenol at pH 7.4, or (b) a placebo solution comprising the same ingredients as (a) except no semaglutide. Inclusion criteria for subjects in the trial comprised (i) liver steatosis of at least 10% measured by magnetic resonance imaging proton density fat fraction (MRI-PDFF) at screening, (ii) liver stiffness between 2.50 and 4.63 kPa (both inclusive) measured by magnetic resonance elastography at screening, (iii) BMI between 25.0 and 40.0 kg/m^2 (both inclusive) at screening, (iv) liver stiffness >6.50 kPa measured via Fibroscan® (manufactured by Echosens, Paris, France) at screening, and (v) for subjects with type 2 diabetes mellitus only, diagnosis of type 2 diabetes mellitus was at least 180 days prior to screening and with HbA1c of no more than 9.5% at screening. Screening was carried out prior to baseline in order to make assessments used to determine subject eligibility. Exclusion criteria for subjects in the trial comprised (i) documented causes of chronic liver disease other than NAFLD including NASH and (ii) no substantial alcohol consumption, defined in the trial as no more than 20 g ethanol per day for women or no more than 30 g ethanol per day for men. Baseline characteristics for all randomised subjects in the trial were shown in Table B. MRI-PDFF is a determination of the percentage of fat in the entire liver and the method is described in e.g. Caussy et al. Hepatology. 2018 August; 68(2):763-772.
# subjects with NASH = assay: Clinical Trial A: enhanced liver fibrosis (ELF) score; type: in vivo, human; settings: week 72; for Change in enhanced liver fibrosis (ELF) at end of trial compared to baseline relative to placebo, ETD: all randomised subjects, estimated treatment difference vs placebo (ANCOVA)
# Text: In some embodiments the method of the invention reduces enhanced liver fibrosis (ELF). In some embodiments the term “enhanced liver fibrosis” (also referred to as ELF) as used herein refers to a score derived as a log-linear combination based on blood sample levels of hyaluronic acid (HA), amino-terminal propeptide of type III collagen (P3NP), and tissue inhibitor of metalloproteinase 1 (TIMP1) according to Formula (I): ELF=−7.412+0.681×ln(cHA)+0.775×ln(cP3NP)+0.494×ln(cTIMP1) (I) where cHA is the serum concentration of HA in ng/ml, cP3NP is the serum concentration of P3NP in ng/ml, and cTIMP1 is the serum concentration of TIMP1 in ng/ml.
# A 72-week, randomised, double-blind, placebo-controlled, six-armed, parallel group, multicentre, multi-national phase 2 trial comparing once daily (OD) administration of semaglutide in three different doses (0.1 mg, 0.2 mg and 0.4 mg) with placebo in subjects with NASH was carried out. A total of 319 subjects received trial product, 302 subjects completed the trial, and 277 subjects had liver biopsy at trial week 72. Subjects received once daily (a) semaglutide of (i) 0.05 mg for 4 weeks and 0.1 mg for the remaining trial period, (ii) 0.05 mg for 4 weeks, 0.1 mg for 4 weeks, and 0.2 mg for the remaining trial period, (iii) 0.05 mg for 4 weeks, 0.1 mg for 4 weeks, 0.2 mg for 4 weeks, 0.3 mg for 4 weeks, and 0.4 mg for the remaining trial period, or (b) placebo in injection volumes corresponding to (i), (ii) or (iii). Administration was performed via subcutaneous injection using (a) an aqueous solution comprising 1.0 mg/ml semaglutide, 1.42 mg/ml disodium hydrogen phosphate dihydrate, 14.0 mg/ml propylene glycol, 5.50 mg/ml phenol at pH 7.4, or (b) a placebo solution comprising the same ingredients as (a) except no semaglutide. Inclusion criteria for subjects in the trial comprised (i) histologic evidence of NASH based on evaluation of a liver biopsy obtained up to 21 weeks before screening, (ii) a histological NAS >4 with a score of 1 or more in each sub-component of the score, and (iii) liver fibrosis stage 1, 2 or 3 according to the NASH-CRN. Screening was carried out prior to baseline in order to make assessments used to determine subject eligibility. Exclusion criteria for subjects in the trial comprised (i) documented causes of chronic liver disease other than NASH and (ii) no substantial alcohol consumption, defined in the trial as no more than 20 g ethanol per day for women or no more than 30 g ethanol per day for men. Baseline characteristics for all randomised subjects in the trial were as shown in Table A. The term “baseline” as used herein refers to the beginning of the trial prior to administration of semaglutide or placebo. […] The fibrosis stage was determined according to the Kleiner fibrosis classification.
substance,measurement,setting,value
"N-epsilon26-[2-(2-{2-[2-(2-{2-[(S)-4-Carboxy-4-(17-carboxyheptadecanoyl-amino)butyrylamino]ethoxy}ethoxy)acetylamino]ethoxy}ethoxy)acetyl] [Aib8, Arg34]GLP-1-(7-37) [Semaglutide]",Reduction of liver steatosis compared to placebo,[1]; 24 weeks of trial,30%
same,Subjects with at least 30% reduction in liver steatosis,[1]; 24 weeks of trial,about 65%
same,Reduction of liver steatosis compared to placebo,[1]; 48 and 72 weeks of trial,about 50%
same,Subjects with at least 30% reduction in liver steatosis,[1]; 48 and 72 weeks of trial,74-77%
same,"Change in liver steatosis by MRI-PDFF compared to baseline, Estimated mean ratio to baseline",[1]; trial week 24,0.64
same,Proportion of subjects with 30% or greater reduction in liver steatosis by MRI-PDFF compared to baseline,[1]; trial week 24,64.7 (p = 0.0006) %
same,"Change in liver steatosis by MRI-PDFF compared to baseline, Estimated mean ratio to baseline",[1]; trial week 48,0.42
same,Proportion of subjects with 30% or greater reduction in liver steatosis by MRI-PDFF compared to baseline,[1]; trial week 48,76.5 (p = 0.0001) %
same,"Change in liver steatosis by MRI-PDFF compared to baseline, Estimated mean ratio to baseline",[1]; trial week 72,0.42
same,Proportion of subjects with 30% or greater reduction in liver steatosis by MRI-PDFF compared to baseline,[1]; trial week 72,73.5 (p = 0.0006) %
same,"Change in enhanced liver fibrosis (ELF) at end of trial compared to baseline relative to placebo, ETD",subjects with NASH; 0.1 mg OD s.c.,−0.35 [−0.57;
same,"Change in enhanced liver fibrosis (ELF) at end of trial compared to baseline relative to placebo, ETD",subjects with NASH; 0.2 mg OD s.c.,−0.40 [−0.62;
same,"Change in enhanced liver fibrosis (ELF) at end of trial compared to baseline relative to placebo, ETD",subjects with NASH; 0.4 mg OD s.c.,−0.57 [−0.79;
same,Reduction of ELF compared to placebo (in words),subjects with NASH; all tested semaglutide dosages,reduced ELF significantly more compared to placebo
